Experimental data as given in patent US9828360B2 (Array BioPharma Inc., priority 2012, dated 2017).

These molecules were tested against TrkA (Homo sapiens, UniProt P04629) (assay: TrkA LanthaScreen Eu Kinase Binding Assay). Conditions: averaged IC50 values, read-out: TrkA Enzyme IC50.
Parameters: 6HIS tagged cytoplasmic domain from Invitrogen, Cat. No. PV3144; purchased Invitrogen PV3144
Protocol: TrkA binding activity was determined in a TrkA LanthaScreen™ Eu Kinase Binding Assay. 5 nM His-tagged recombinant human TrkA (6HIS tagged cytoplasmic domain from Invitrogen, Cat. No. PV3144) was incubated with 4 nM Alexa-Fluor® Tracer 236 (Invitrogen Cat. No. PV5592), 2 nM biotinylated anti-His (Invitrogen Cat. No. PV6090), and 2 nM europium-labeled Streptavidin (Invitrogen Cat. No. PV5899), in buffer (25 mM MOPS, pH 7.5, 5 mM MgCl2, 0.005% Triton X-100). Three fold serial dilutions of compounds of the invention in DMSO were added to a final percentage of 2% DMSO. After 60-minute incubation at 22° C., the reaction was measured using the EnVision mutlimode plate reader (PerkinElmer) via TR-FRET dual wavelength detection at […]. The percent of control was calculated using a ratiometric emission factor. The IC50 values were determined by fitting a four parameter model to the percent of control data.
Table A provides averaged IC50 values for compounds of the invention when tested in the assay of Example A, where A represents an averaged IC50 value <100 nM; and B represents an averaged IC50 value from 100 to 1,000 nM.

TrkA, sequence (P04629 440-796 limits assumed): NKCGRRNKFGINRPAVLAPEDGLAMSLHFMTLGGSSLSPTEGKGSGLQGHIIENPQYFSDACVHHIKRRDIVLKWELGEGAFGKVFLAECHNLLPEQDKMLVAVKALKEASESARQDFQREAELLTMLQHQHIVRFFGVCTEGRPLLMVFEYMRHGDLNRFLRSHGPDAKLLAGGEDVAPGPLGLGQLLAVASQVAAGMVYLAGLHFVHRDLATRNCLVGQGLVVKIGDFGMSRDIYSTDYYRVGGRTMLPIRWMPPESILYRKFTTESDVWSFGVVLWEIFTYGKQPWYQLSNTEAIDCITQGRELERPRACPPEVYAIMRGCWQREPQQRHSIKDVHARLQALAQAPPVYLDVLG

| Compound | IC50 |
| --- | --- |
| COCCN1C[C@@H](NC(=O)Nc2ccc(=O)[nH]c2-c2ccccc2)[C@H](c2ccc(F)c(F)c2)C1 [Example 20, 1-((3S,4R)-4-(3,4-difluorophenyl)-1-(2-methoxyethyl)pyrrolidin-3-yl)-3-(6-oxo-2-phenyl-1,6-dihydropyridin-3-yl)urea] | < 100 nM |
| COCCN1C[C@@H](NC(=O)Nc2cncnc2-c2ccccc2)[C@H](c2ccc(F)c(F)c2)C1 [Example 23, 1-((3S,4R)-4-(3,4-difluorophenyl)-1-(2-methoxyethyl)pyrrolidin-3-yl)-3-(4-phenylpyrimidin-5-yl)urea] | < 100 nM |
| COCCN1C[C@@H](NC(=O)Nc2oc(-c3ccccc3)nc2C)[C@H](c2ccccc2)C1 [Example 42, 1-((3S,4R)-1-(2-methoxyethyl)-4-phenylpyrrolidin-3-yl)-3-(4-methyl-2-phenyloxazol-5-yl)urea] | 100 to 1000 nM |
| COCCN1C[C@@H](NC(=O)Nc2sc(-c3ccccc3)nc2C)[C@H](c2ccc(F)c(F)c2)C1 [Example 45, 11-((3S,4R)-4-(3,4-difluorophenyl)-1-(2-methoxyethyl)pyrrolidin-3-yl)-3-(4-methyl-2-phenylthiazol-5-yl)urea] | < 100 nM |
| COCCN1C[C@@H](NC(=O)Nc2cc(S(C)(=O)=O)cnc2-c2ccccc2)[C@H](c2ccc(F)c(F)c2)C1 [Example 13, 1-((3S,4R)-4-(3,4-difluorophenyl)-1-(2-methoxyethyl)pyrrolidin-3-yl)-3-(5-(methylsulfonyl)-2-phenylpyridin-3-yl)urea] | < 100 nM |
| COCCN1C[C@@H](NC(=O)Nc2ccc(C#N)nc2-c2ccccc2)[C@H](c2ccc(F)c(F)c2)C1 [Example 24, 1-(6-cyano-2-phenylpyridin-3-yl)-3-((3S,4R)-4-(3,4-difluorophenyl)-1-(2-methoxyethyl)pyrrolidin-3-yl)urea] | < 100 nM |
| COCCN1C[C@@H](NC(=O)Nc2cc(C)cnc2-c2ccccc2)[C@H](c2ccc(F)c(F)c2)C1 [Example 30, 1-((3S,4R)-4-(3,4-difluorophenyl)-1-(2-methoxyethyl)pyrrolidin-3-yl)-3-(5-methyl-2-phenylpyridin-3-yl)urea] | < 100 nM |
| COCCN1C[C@@H](NC(=O)Nc2cc(-c3ccccc3)cnc2C)[C@H](c2ccc(F)c(F)c2)C1 [Example 10, 1-((3S,4R)-4-(3,4-difluorophenyl)-1-(2-methoxyethyl)pyrrolidin-3-yl)-3-(2-methyl-5-phenylpyridin-3-yl)urea] | 100 to 1000 nM |
| COCCN1C[C@@H](NC(=O)Nc2ccn(C)c(=O)c2-c2ccccc2)[C@H](c2ccc(F)c(F)c2)C1 [Example 33, 1-((3S,4R)-4-(3,4-difluorophenyl)-1-(2-methoxyethyl)pyrrolidin-3-yl)-3-(1-methyl-2-oxo-3-phenyl-1,2-dihydropyridin-4-yl)urea] | 100 to 1000 nM |
| CCn1c(=O)c(-c2ccccc2)c(NC(=O)N[C@@H]2CN(CCOC)C[C@H]2c2ccc(F)c(F)c2)n1C [Example 40, 1-((3S,4R)-4-(3,4-difluorophenyl)-1-(2-methoxyethyl)pyrrolidin-3-yl)-3-(1-ethyl-2-methyl-5-oxo-4-phenyl-2,5-dihydro-1H-pyrazol-3-yl)urea] | < 100 nM |
| COCCN1C[C@@H](NC(=O)Nc2c(-c3ccccc3)noc2C)[C@H](c2ccccc2)C1 (relative stereo) [Example 37, 1-((trans)-1-(2-methoxyethyl)-4-phenylpyrrolidin-3-yl)-3-(5-methyl-3-phenylisoxazol-4-yl)urea] | 100 to 1000 nM |
| COCCN1C[C@@H](NC(=O)Nc2oc(C(C)C)nc2-c2ccccc2)[C@H](c2ccccc2)C1 [Example 44, 11-(2-isopropyl-4-phenyloxazol-5-yl)-3-((3S,4R)-1-(2-methoxyethyl)-4-phenylpyrrolidin-3-yl)urea] | 100 to 1000 nM |
| COCCN1C[C@@H](NC(=O)Nc2ccc(-c3cccc(S(C)(=O)=O)c3)nc2C)[C@H](c2ccc(F)c(F)c2)C1 [Example 18, 1-((3S,4R)-4-(3,4-difluorophenyl)-1-(2-methoxyethyl)pyrrolidin-3-yl)-3-(2-methyl-6-(3-(methylsulfonyl)phenyl)pyridin-3-yl)urea] | 100 to 1000 nM |
| COCCN1C[C@@H](NC(=O)Nc2sc(C(C)(C)O)nc2-c2ccccc2)[C@H](c2ccc(F)c(F)c2)C1 [Example 51, 1-((3S,4R)-4-(3,4-difluorophenyl)-1-(2-methoxyethyl)pyrrolidin-3-yl)-3-(2-(2-hydroxypropan-2-yl)-4-phenylthiazol-5-yl)urea] | < 100 nM |
| COCCN1C[C@@H](NC(=O)Nc2cc(Br)cnc2-c2ccccc2)[C@H](c2ccccc2)C1 (relative stereo) [Example 3] | < 100 nM |
| COCCN1C[C@@H](NC(=O)Nc2ccc(-c3ccccc3)nc2C)[C@H](c2ccc(F)c(F)c2)C1 [Example 9, 1-((3S,4R)-4-(3,4-difluorophenyl)-1-(2-methoxyethyl)pyrrolidin-3-yl)-3-(2-methyl-6-phenylpyridin-3-yl)urea] | 100 to 1000 nM |
| COCCN1C[C@@H](NC(=O)Nc2ccc(C)nc2-c2ccccc2)[C@H](c2cc(F)cc(F)c2)C1 [Example 31, 1-((3S,4R)-4-(3,5-difluorophenyl)-1-(2-methoxyethyl)pyrrolidin-3-yl)-3-(6-methyl-2-phenylpyridin-3-yl)urea] | < 100 nM |

The remaining lines, values ahead:

| IC50 | Compound |
| --- | --- |
| 100 to 1000 nM | COCCN1C[C@@H](NC(=O)Nc2cc(S(C)(=O)=O)cnc2-c2ccccc2)[C@H](c2ccccc2)C1 (relative stereo) [Example 4, 1-(trans-1-(2-methoxyethyl)-4-phenylpyrrolidin-3-yl)-3-(5-(methylsulfonyl)-2-phenylpyridin-3-yl)urea] |
| < 100 nM | COCCN1C[C@@H](NC(=O)Nc2ccc(OC)nc2-c2ccccc2)[C@H](c2ccc(F)c(F)c2)C1 [Example 16, 1-((3S,4R)-4-(3,4-difluorophenyl)-1-(2-methoxyethyl)pyrrolidin-3-yl)-3-(6-methoxy-2-phenylpyridin-3-yl)urea] |
| < 100 nM | CCc1ccc(NC(=O)N[C@@H]2CN(CCOC)C[C@H]2c2ccc(F)c(F)c2)c(-c2ccccc2)n1 [Example 28, 1-((3S,4R)-4-(3,4-difluorophenyl)-1-(2-methoxyethyl)pyrrolidin-3-yl)-3-(6-ethyl-2-phenylpyridin-3-yl)urea] |
| < 100 nM | COCCN1C[C@@H](NC(=O)Nc2cccnc2-c2ccccc2)[C@H](c2ccccc2)C1 (relative stereo) [Example 1, 1-(trans-1-(2-methoxyethyl)-4-phenylpyrrolidin-3-yl)-3-(2-phenylpyridin-3-yl)urea] |
| 100 to 1000 nM | COCCN1C[C@@H](NC(=O)Nc2cc(-c3cccnc3)cnc2C)[C@H](c2ccc(F)c(F)c2)C1 [Example 15, 1-((3S,4R)-4-(3,4-difluorophenyl)-1-(2-methoxyethyl)pyrrolidin-3-yl)-3-(6-methyl-[3,3′-bipyridin]-5-yl)urea] |
| 100 to 1000 nM | COCCN1C[C@@H](NC(=O)Nc2nc(-c3ccccc3)nn2C)[C@H](c2ccc(F)c(F)c2)C1 [Example 54, 1-((3S,4R)-4-(3,4-difluorophenyl)-1-(2-methoxyethyl)pyrrolidin-3-yl)-3-(1-methyl-3-phenyl-1H-1,2,4-triazol-5-yl)urea] |
| 100 to 1000 nM | COCCN1C[C@@H](NC(=O)Nc2cc(=O)n(CC(F)(F)F)nc2-c2ccccc2)[C@H](c2ccc(F)c(F)c2)C1 [Example 35, 1-((3S,4R)-4-(3,4-difluorophenyl)-1-(2-methoxyethyl)pyrrolidin-3-yl)-3-(6-oxo-3-phenyl-1-(2,2,2-trifluoroethyl)-1,6-dihydropyridazin-4-yl)urea] |
| < 100 nM | COCCN1C[C@@H](NC(=O)Nc2ccc(-c3cccnc3)nc2C)[C@H](c2ccc(F)c(F)c2)C1 [Example 14, 1-((3S,4R)-4-(3,4-difluorophenyl)-1-(2-methoxyethyl)pyrrolidin-3-yl)-3-(6-methyl-[2,3′-bipyridin]-5-yl)urea] |
| < 100 nM | COCCOc1ccc(NC(=O)N[C@@H]2CN(CCOC)C[C@H]2c2ccc(F)c(F)c2)c(-c2ccccc2)n1 [Example 27, 1-((3S,4R)-4-(3,4-difluorophenyl)-1-(2-methoxyethyl)pyrrolidin-3-yl)-3-(6-(2-methoxyethoxy)-2-phenylpyridin-3-yl)urea] |
| < 100 nM | COCCN1C[C@@H](NC(=O)Nc2nc(C)nn2-c2ccccc2)[C@H](c2ccc(F)c(F)c2)C1 [Example 53, 1-((3S,4R)-4-(3,4-difluorophenyl)-1-(2-methoxyethyl)pyrrolidin-3-yl)-3-(3-methyl-1-phenyl-1H-1,2,4-triazol-5-yl)urea] |
| < 100 nM | COCCN1C[C@@H](NC(=O)Nc2cc(Cl)cnc2-c2ccccc2)[C@H](c2ccccc2)C1 (relative stereo) [Example 2, 1-(5-chloro-2-phenylpyridin-3-yl)-3-(trans-1-(2-methoxyethyl)-4-phenylpyrrolidin-3-yl)urea] |
| < 100 nM | COCCN1C[C@@H](NC(=O)Nc2sc(CO)nc2-c2ccccc2)[C@H](c2ccc(F)c(F)c2)C1 [Example 50] |
| < 100 nM | COCCN1C[C@@H](NC(=O)Nc2c(-c3ccccc3)nsc2C(N)=O)[C@H](c2ccc(F)c(F)c2)C1 [Example 36, 4-(3-((3S,4R)-4-(3,4-difluorophenyl)-1-(2-methoxyethyl)pyrrolidin-3-yl)ureido)-3-phenylisothiazole-5-carboxamide] |
